Tests used:
Type in all cases: in vivo, mouse
[1] = tested on: spontaneous neurotransmitter release in Eu mice; assay: Patch-clamp electrophysiology, CA1 neurons of hippocampal sections, euploid mice; settings: after 21 days intranasal treatment
Excerpt: The brain sections containing the hippocampus were obtained from mice belonging to the four experimental groups (Eu Veh, Eu SITA, Ts2 Veh and Ts2 SITA) at 9 months of age after being euthanized by an overdose of isofluorane. Brains were quickly removed and placed in an ice-cold cutting solution containing the following (in mM): 124 NaCl, 3.2 KCl, 1 NaH2PO4, 2 MgCl2, 1 CaCl2), 26 NaHCO3, 10 glucose, 2 Na-pyruvate and 0.6 ascorbic acid, pH 7.4, 95% O2/5% CO2. The brain sections containing the hippocampus ([…]) were cut using a vibratome (VT1000S; Leica Microsystems) and immediately transferred to an incubation chamber filled with ACSF containing the following (in mM): 124 NaCl, 3.2 KCl, 1 NaH2PO4, 1 MgCl2, 2 CaCl2, 26 NaHCO3 and 10 glucose, pH 7.4, 95% O2/5% CO2. Brain sections were allowed to recover at 32° C. for 1 hour before being equilibrated to room temperature. For electrophysiological recordings, brain sections were transferred to a recording chamber constantly perfused with heated ACSF (32° C.) and bubbled with 95% O2/5% CO2. Subsequently, the slices were used for electrophysiological recordings. All electrophysiological recordings were performed using the patch-clamp technique in the whole-cell configuration. […] Membrane capacity and resistance were assessed in the same neurons. […]

DYRK1A protein = assay: Western blot of DYRK1A protein levels in hippocampus; settings: hippocampus of Ts2Cje mice, 21 days intranasal treatment
Method: Finally, animals were sacrificed using cervical dislocation. […] For Western blots, 20 μg of proteins from the hippocampus of mice belonging to the four experimental groups were separated by 4-15% SDS-PAGE CriterionTM […] (Bio-rad, Hercules, CAUSE). […] Therefore, the gel, once the image has been acquired, represents the total of the loaded proteins (Total Load), which will then be used to normalize the specific proteins to be examined. After electrophoresis and gel imaging, proteins are transferred via the semi-dry TransBlot Turbo apparatus (Bio-Rad Laboratories) onto nitrocellulose membranes (Bio-Rad, Hercules, CA, USA). Nitrocellulose membranes are blocked with 3% bovine serum albumin (BSA) in a solution of Tween 20-TBS and incubated overnight at 4° C. using specific primary antibodies: p([…])-GSK3B (1:1000, Santa Cruz, #sc-135653), p(S9)-GSK3β (1:1000, Cell Signaling, #5558S), GSK3β (1:1000 Abcam, #93926) and DYRK1A (1:1000, Cell Signaling, #8765S), MAPK44/42 (1:1000, Cell Signaling, #9102), p[…])-MAPK44/42 (1 1000, Cell Signaling, #9101), Akt (1:2000, Bio-Rad, # vma00253K), p(S473) Akt (1:1000, Cell Signaling, #4060S). After three washes with a T-TBS buffer solution, membranes were incubated for 1 hour at room temperature with the secondary antibodies. […] Finally, the results obtained were analyzed using the ImageLab program (Bio-rad, Hercules, CA, USA).

GSK3b protein = assay: Western blot of GSK3b activation (pS9/pT216) in hippocampus; settings: brains (hippocampus) of Ts2Cje mice
Method: For the duration of the treatment, the mice were weighed weekly in order to assess any weight changes. After 21 days of treatment, the animals underwent a behavioral test to assess their memory and learning abilities. After the behavioral test, metabolic parameters such as blood glucose (both fasting and under the glycemic curve), body surface area (BSA) and body mass index (BMI) were assessed. Finally, animals were sacrificed using cervical dislocation. The brain and peripheral areas were isolated and collected in liquid nitrogen and subsequently stored at −80° C. until they were used for biochemical analyzes.
Total protein extracts were prepared from the frontal cortex for human autopsy samples and from the hippocampus for mouse samples, using RIPA solution (pH 7.4) containing TrisHCl (50 mM, pH 7.4), NaCl (150 mM), 1% NP-40, 0.25% sodium deoxycholate, ethylenediamine tetracetic acid (EDTA) (1 mM), and 0.1% sodium dodecyl sulfate (SDS). […] For the rest of the experiments, protein extracts were supplemented with cocktails of protease and phosphatase inhibitors (Sigma Aldrich, St Louis, MO, USA). Brain tissues were homogenized in the solution described above by sonication, and centrifuged at 14,000 rpm for 30 min at 4° C. The supernatant was used to determine total protein concentration by means of the bicinchoninic acid assay (BCA, Pierce, Rockford, IL). […]

β-amyloid peptide 1-42 = assay: ELISA Aβ 1-42 in hippocampus
Method: The 3x-Tg mouse, an animal model commonly used for the study of Alzheimer's disease (n=2/group), was used as a positive control for the production of β-amyloid 1-42. Briefly, ˜10 mg of hippocampus was homogenized in DEA buffer (10 μL/mg tissue; 0.2% diethanolamine and 50 mM NaCl) to which the protease inhibitor cocktail (1:100; Millipore) was added. The sample was centrifuged at 15,000 rpm for 1 hour 30 min at 4° C., the supernatant was stored for measuring ß-amyloid 1-42 following the instructions given by the kit manufacturer. The calculations for the quantization of β-amyloid were carried out using GraphPad Prism 8.0 software (GraphPad, La Jolla, CA, USA).

`N[C@@H](CC(=O)N1CCn2c(nnc2C(F)(F)F)C1)Cc1cc(F)c(F)cc1F` [sitagliptin, (R)-4-oxo-4-[3-(trifluoromethyl)-5,6-dihydro[1,2,4]triazole[4,3-a]pyrazin-7(8H)-yl]-1-(2,4,5-trifluorophenyl)butan-2-amine] was tested, and the “frequency and extent of spontaneous release of neurotransmitters” value [1] was “no effect”, the “expression levels of the DYRK1A protein” value (DYRK1A protein) was “significant reduction” and the “activation of the GSK3b protein” value (GSK3b protein) was “increased activation”. The “Ab (beta-amyloid 1-42) levels” value (β-amyloid peptide 1-42) was “reduction”.
